Test results reported in paper PMC10439133, “Biosynthesis of ansamitocin P-3 incurs stress on the producing strain Actinosynnema pretiosum at multiple targets” (Communications Biology, 2023).

How the values were obtained:
[1] = molecular target: T1, flavin-dependent thymidylate synthase (FDTS) (Actinosynnema pretiosum, UniProt A0A290ZCH3); experiment: SPR (Biacore 8K, CM5 chip); also NADPH oxidase inhibition with KI =[…]; type: binding
T1 construct: gene thyX; recombinant His-tagged, from pET30a in E. coli BL21(DE3)
T1 sequence (A0A290ZCH3 1-250): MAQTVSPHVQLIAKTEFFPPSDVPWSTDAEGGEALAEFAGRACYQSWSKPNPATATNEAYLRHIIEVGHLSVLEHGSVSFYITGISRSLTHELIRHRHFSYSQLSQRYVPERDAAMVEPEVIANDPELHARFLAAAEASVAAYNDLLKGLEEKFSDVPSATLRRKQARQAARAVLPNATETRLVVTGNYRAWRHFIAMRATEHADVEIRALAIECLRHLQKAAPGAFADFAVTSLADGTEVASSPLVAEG

[2] = molecular target: T2, deoxythymidine diphosphate glucose-4,6-dehydratase (dTGD) (Actinosynnema pretiosum, UniProt A0A290ZDY1); experiment: SPR (Biacore 8K, CM5 chip); also enzyme inhibition with KI =[…]; type: binding
T2 construct: gene rfbB; recombinant His-tagged, from pET30a in E. coli BL21(DE3)
T2 sequence (A0A290ZDY1 1-330): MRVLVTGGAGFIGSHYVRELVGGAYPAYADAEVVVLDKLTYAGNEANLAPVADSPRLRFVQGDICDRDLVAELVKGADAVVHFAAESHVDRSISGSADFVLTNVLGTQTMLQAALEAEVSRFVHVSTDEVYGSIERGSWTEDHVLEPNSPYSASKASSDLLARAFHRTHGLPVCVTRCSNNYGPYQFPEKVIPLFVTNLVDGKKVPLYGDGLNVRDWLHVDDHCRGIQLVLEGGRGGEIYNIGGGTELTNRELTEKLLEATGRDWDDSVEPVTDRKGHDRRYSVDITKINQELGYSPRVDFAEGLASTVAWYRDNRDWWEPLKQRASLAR

COc1cc2cc(c1Cl)N(C)C(=O)C[C@H](OC(=O)C(C)C)[C@]1(C)O[C@H]1[C@H](C)[C@@H]1C[C@@](O)(NC(=O)O1)[C@H](OC)/C=C/C=C(\C)C2 [AP-3, ansamitocin P-3]
Kd [1]: 66.5 µM | Kd [2]: 360 µM
